Data as given in patent US9789089B2 (Gilead Sciences, Inc., priority 2013, dated 2017).
Where two headings read alike, the source gives them in different places.

Assays:
HIV-IIIb = assay: Test A: Antiviral Assay in MT4 Cells; type: cell-based, HIV-1; settings: read-out: % inhibition at 6 μM
Method: Test A: Antiviral Assay in MT4 Cells
(§1) For the antiviral assay, 40 μL of 1× test concentration of 3-fold serially diluted compound in culture medium with 10% FBS was added to each well of a 384-well plate (10 concentrations) in quadruplicate. MT-4 cells were next mixed with HIV-IIIb at an m.o.i of 0.003 for 1 hour, after which time 35 μL of virus/cell mixture (2000 cells) was immediately added to each well containing 40 μL of diluted compound. The plates were then incubated at 37° C. for 5 days. After 5 days of incubation, 25 μl of 2× concentrated CellTiter-Glo™ Reagent (catalog #G7571, Promega Biosciences, Inc., Madison, Wis.) was added to each well containing MT-4 cells. Cell lysis was carried out by incubating at room temperature for 10 min and then chemiluminescence was read.

[1] = Test B: Cytotoxicity assay; type: cell-based; settings: human, uninfected MT-4 cells, same protocol as Test A, CellTiter-Glo
Method: as §1
Test B:Cytotoxicity assay
Compound cytotoxicity and the corresponding CC50 values was determined using the same protocol as described in the antiviral assay (Test A) except that uninfected cells were used.

[2] = Human immunodeficiency virus 1, MT4, 120 h, percent inhibition of virus-induced cell killing at 6 μM drug concentration, from the dose response curve, MT-4 cells infected with HIV-IIIb, 5 days

Row | Structure (SMILES) | inhibition at 6 µM (HIV-IIIb; [2]) | CC50 at 5 days [1] | inhibition at 6 µM (HIV-IIIb; Human immunodeficiency virus 1, IIIB, MT4, 120 h)
1 | COc1ccc2[nH]cc(CC(=O)NC(Cc3cc(F)cc(F)c3)c3ncoc3-c3ccc(Cl)cc3)c2n1 (centres unmarked) [Compound 35, N-(1-(5-(4-chlorophenyl)oxazol-4-yl)-2-(3,5-difluorophenyl)ethyl)-2-(5-methoxy-1H-pyrrolo[3,2-b]pyridin-3-yl)acetamide] | 0% | 15.3 µM | –
2 | O=C(Cn1nc(C(F)(F)F)c2c1CCCC2)NC(Cc1cc(F)cc(F)c1)c1ncoc1-c1ccc(Cl)cc1 (centres unmarked) [Compound 36, N-(1-(5-(4-chlorophenyl)oxazol-4-yl)-2-(3,5-difluorophenyl)ethyl)-2-(3-(trifluoromethyl)-4,5,6,7-tetrahydro-1H-indazol-1-yl)acetamide] | – | 16.3 µM | 0%
3 | O=C(Cc1c[nH]c2ccc(F)cc12)NC(Cc1cc(F)cc(F)c1)c1ncoc1-c1ccc(Cl)cc1 (centres unmarked) [Compound 37, N-(1-(5-(4-chlorophenyl)oxazol-4-yl)-2-(3,5-difluorophenyl)ethyl)-2-(5-fluoro-1H-indol-3-yl)acetamide] | 0% | 10.2 µM | –
4 | O=C(Cc1c[nH]c2ccc(O)nc12)NC(Cc1cc(F)cc(F)c1)c1ncoc1-c1ccc(Cl)cc1 (centres unmarked) [Compound 38, N-(1-(5-(4-chlorophenyl)oxazol-4-yl)-2-(3,5-difluorophenyl)ethyl)-2-(5-hydroxy-1H-pyrrolo[3,2-b]pyridin-3-yl)acetamide] | 0% | 19.1 µM | –
